Results: ChEMBL document CHEMBL3611975, “New carbocyclic N(6)-substituted adenine and pyrimidine nucleoside analogues with a bicyclo[2.2.1]heptane fragment as sugar moiety; synthesis, antiviral, anticancer activity and X-ray crystallography” (Bioorg Med Chem, 2015)

Experiments:
SK-MEL-28 = experiment: Cytotoxicity against human SK-MEL-28 cells assessed as growth at 10^-5 M relative to control
MDA-MB-468 = experiment: Cytotoxicity against human MDA-MB-468 cells assessed as growth at 10^-5 M relative to control
HCC 2998 = experiment: Cytotoxicity against human HCC2998 cells assessed as growth at 10^-5 M relative to control
ACHN = experiment: Cytotoxicity against human ACHN cells assessed as growth at 10^-5 M relative to control
NCI/ADR-RES = experiment: Cytotoxicity against human NCI/ADR-RES cells assessed as growth at 10^-5 M relative to control
COLO 205 = experiment: Cytotoxicity against human COLO205 cells assessed as growth at 10^-5 M relative to control
OVCAR-5 = experiment: Cytotoxicity against human OVCAR5 cells assessed as growth at 10^-5 M relative to control
OVCAR-4 = experiment: Cytotoxicity against human OVCAR4 cells assessed as growth at 10^-5 M relative to control
HOP-92 = experiment: Cytotoxicity against human HOP92 cells assessed as growth at 10^-5 M relative to control
SF-539 = experiment: Cytotoxicity against human SF539 cells assessed as growth at 10^-5 M relative to control
UACC-62 = experiment: Cytotoxicity against human UACC62 cells assessed as growth at 10^-5 M relative to control
Malme-3M = experiment: Cytotoxicity against human MALME-3M cells assessed as growth at 10^-5 M relative to control
HL-60(TB) = experiment: Cytotoxicity against human HL-60(TB) cells assessed as growth inhibition at 10^-5 M relative to control; format: functional; conditions: read-out: GI
KM12 = experiment: Cytotoxicity against human KM12 cells assessed as growth at 10^-5 M relative to control
OVCAR-8 = experiment: Cytotoxicity against human OVCAR8 cells assessed as growth at 10^-5 M relative to control
LOX IMVI = experiment: Cytotoxicity against human LOXIMVI cells assessed as growth at 10^-5 M relative to control
A498 = experiment: Cytotoxicity against human A498 cells assessed as growth at 10^-5 M relative to control
MCF7 = experiment: Cytotoxicity against human MCF7 cells assessed as growth at 10^-5 M relative to control
IGROV-1 = experiment: Cytotoxicity against human IGROV1 cells assessed as growth at 10^-5 M relative to control
RPMI-8226 = experiment: Cytotoxicity against human RPMI8226 cells assessed as growth at 10^-5 M relative to control
NCI-H322M = experiment: Cytotoxicity against human NCI-H322M cells assessed as growth at 10^-5 M relative to control
SF-268 = experiment: Cytotoxicity against human SF268 cells assessed as growth at 10^-5 M relative to control
BT-549 = experiment: Cytotoxicity against human BT549 cells assessed as growth at 10^-5 M relative to control
HOP-62 = experiment: Cytotoxicity against human HOP62 cells assessed as growth at 10^-5 M relative to control
UACC-257 = experiment: Cytotoxicity against human UACC257 cells assessed as growth at 10^-5 M relative to control
PC-3 = experiment: Cytotoxicity against human PC3 cells assessed as growth at 10^-5 M relative to control
T47D = experiment: Cytotoxicity against human T47D cells assessed as growth at 10^-5 M relative to control
Coxsackievirus B4 = experiment: Antiviral activity against Human coxsackievirus B4 Powers infected in African green monkey Vero cells assessed as decrease in virus titer after 72 hrs by MTT assay; format: functional, organism-based; conditions: Enterovirus B
SK-OV-3 = experiment: Cytotoxicity against human SKOV3 cells assessed as growth at 10^-5 M relative to control
SW-620 = experiment: Cytotoxicity against human SW620 cells assessed as growth at 10^-5 M relative to control
M14 = experiment: Cytotoxicity against human M14 cells assessed as growth at 10^-5 M relative to control
SK-MEL-5 = experiment: Cytotoxicity against human SK-MEL-5 cells assessed as growth at 10^-5 M relative to control
[1] = Selectivity index, ratio of CTD50 for African green monkey Vero cells to EC50 for Human coxsackievirus B4 Powers; format: toxicity, cell-based
K562 = experiment: Cytotoxicity against human K562 cells assessed as growth at 10^-5 M relative to control
SK-MEL-2 = experiment: Cytotoxicity against human SK-MEL-2 cells assessed as growth at 10^-5 M relative to control
U-251 = experiment: Cytotoxicity against human U251 cells assessed as growth at 10^-5 M relative to control
SR = experiment: Cytotoxicity against human SR cells assessed as growth at 10^-5 M relative to control
HCT-15 = experiment: Cytotoxicity against human HCT15 cells assessed as growth at 10^-5 M relative to control
CCRF-CEM = experiment: Cytotoxicity against human CCRF-CEM cells assessed as growth at 10^-5 M relative to control
DU-145 = experiment: Cytotoxicity against human DU145 cells assessed as growth at 10^-5 M relative to control

Row | SMILES | growth, % of control at 10 µM (SK-MEL-28) | growth, % of control at 10 µM (MDA-MB-468) | growth, % of control at 10 µM (HCC 2998) | growth, % of control at 10 µM (ACHN) | growth, % of control at 10 µM (NCI/ADR-RES) | growth, % of control at 10 µM (COLO 205) | growth, % of control at 10 µM (OVCAR-5) | growth, % of control at 10 µM (OVCAR-4) | growth, % of control at 10 µM (HOP-92) | growth, % of control at 10 µM (SF-539) | growth, % of control at 10 µM (UACC-62) | growth, % of control at 10 µM (Malme-3M) | inhibition of growth at 10 µM (HL-60(TB)) | growth, % of control at 10 µM (KM12) | growth, % of control at 10 µM (OVCAR-8) | growth, % of control at 10 µM (LOX IMVI) | growth, % of control at 10 µM (A498) | growth, % of control at 10 µM (MCF7) | growth, % of control at 10 µM (IGROV-1) | growth, % of control at 10 µM (RPMI-8226) | other results
1 | OC[C@H]1[C@@H]2C[C@H](n3cnc4c(NCCc5ccccc5)ncnc43)[C@H]1C[C@@H]2Cl | 107% | 89.4% | 89.8% | 97.8% | 88.2% | 99.3% | 104% | 93.6% | 92.4% | 98.2% | 93.1% | 102% | 120% | 102% | 95.7% | 92.7% | 95.5% | 89.9% | 105% | 87.9% | growth, % of control at 10 µM (NCI-H322M): 99.5%; growth, % of control at 10 µM (SF-268): 101%; growth, % of control at 10 µM (BT-549): 96.1%; growth, % of control at 10 µM (HOP-62): 94.2%; growth, % of control at 10 µM (UACC-257): 103%; growth, % of control at 10 µM (PC-3): 89.1%; growth, % of control at 10 µM (T47D): 86.8%; EC50 (Coxsackievirus B4): 4 µM; growth, % of control at 10 µM (SK-OV-3): 103%; growth, % of control at 10 µM (SW-620): 99.7%; growth, % of control at 10 µM (M14): 101%; growth, % of control at 10 µM (SK-MEL-5): 73.9%; selectivity ratio [1]: 3; growth, % of control at 10 µM (K562): 91.1%; growth, % of control at 10 µM (SK-MEL-2): 97.2%; growth, % of control at 10 µM (U-251): 103%; growth, % of control at 10 µM (SR): 84.1%; growth, % of control at 10 µM (HCT-15): 81.7%; growth, % of control at 10 µM (CCRF-CEM): 87.6%; growth, % of control at 10 µM (DU-145): 98%
2 | COc1ccc(CCNc2ncnc3c2ncn3[C@H]2C[C@H]3[C@H](CO)[C@@H]2C[C@@H]3Cl)cc1 | 104% | 101% | 97.2% | 97.7% | 86.5% | 113% | 97.7% | 94.3% | 114% | 95.1% | 99.6% | 98.2% | 94.7% | 97% | 101% | 96.7% | 99.9% | 94.1% | 98.7% | 82.5% | growth, % of control at 10 µM (NCI-H322M): 89.2%; growth, % of control at 10 µM (SF-268): 97.7%; growth, % of control at 10 µM (BT-549): 86.8%; growth, % of control at 10 µM (HOP-62): 107%; growth, % of control at 10 µM (UACC-257): 99.4%; growth, % of control at 10 µM (PC-3): 102%; growth, % of control at 10 µM (T47D): 66.1%; EC50 (Coxsackievirus B4): > 9 µM; growth, % of control at 10 µM (SK-OV-3): 106%; growth, % of control at 10 µM (SW-620): 108%; growth, % of control at 10 µM (M14): 98.3%; growth, % of control at 10 µM (SK-MEL-5): 87%; selectivity ratio [1]: 1; growth, % of control at 10 µM (K562): 82.8%; growth, % of control at 10 µM (SK-MEL-2): 101%; growth, % of control at 10 µM (U-251): 105%; growth, % of control at 10 µM (SR): 86.7%; growth, % of control at 10 µM (HCT-15): 95.5%; growth, % of control at 10 µM (CCRF-CEM): 108%; growth, % of control at 10 µM (DU-145): 105%
3 | CCOc1ncnc2c1ncn2[C@H]1C[C@H]2[C@H](CO)[C@@H]1C[C@@H]2Cl | 100% | 98.6% | 98.9% | 99% | 90.8% | 119% | 92.5% | 108% | 124% | 102% | 104% | 96% | 95.4% | 101% | 106% | 90.9% | 88.8% | 95.2% | 95.4% | 121% | growth, % of control at 10 µM (NCI-H322M): 89.9%; growth, % of control at 10 µM (SF-268): 98%; growth, % of control at 10 µM (BT-549): 106%; growth, % of control at 10 µM (HOP-62): 106%; growth, % of control at 10 µM (UACC-257): 106%; growth, % of control at 10 µM (PC-3): 104%; growth, % of control at 10 µM (T47D): 103%; EC50 (Coxsackievirus B4): > 102 µM; growth, % of control at 10 µM (SK-OV-3): 128%; growth, % of control at 10 µM (SW-620): 109%; growth, % of control at 10 µM (M14): 111%; growth, % of control at 10 µM (SK-MEL-5): 100%; selectivity ratio [1]: 2; growth, % of control at 10 µM (K562): 101%; growth, % of control at 10 µM (SK-MEL-2): 108%; growth, % of control at 10 µM (U-251): 102%; growth, % of control at 10 µM (SR): 97.5%; growth, % of control at 10 µM (HCT-15): 95.7%; growth, % of control at 10 µM (CCRF-CEM): 129%; growth, % of control at 10 µM (DU-145): 105%
